Some test systems named below: BT-549 breast; HCT-116 colon; IGROV1 ovarian; MOLT-4 leukemia; NCI-H522 lung; NCI/ADR-RES ovarian; SF-268 CNS; SNB-19 CNS; U251 CNS; UACC-62 melanoma.
Common to all, as to experiment: DTP human tumour cell line panel, 48 h

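Test compounds were applied to cells in 96-well plates for 48 hours at 5 doses. GI50 marks 50% less growth. TGI: concentration producing complete growth inhibition.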

What is called GI50 is the concentration at which growth is held to half of that of the control. As usually defined, the TGI is the concentration at which net growth stops. With `COc1cc(C(O)c2nc3ccccc3s2)cc(OC)c1OC` (stereo not given), the GI50 in the experiment on BT-549 breast is 60.6 µM; with HCT-116 colon, 45.4 µM; with IGROV1 ovarian it was 34.3 µM; in the experiment on MOLT-4 leukemia, 18.1 µM; in the experiment on NCI-H522 lung, 29.2 µM; in the experiment on NCI/ADR-RES ovarian, 8.96 µM. Moreover, the GI50 was above 100 µM with SF-268 CNS, above 100 µM in the experiment on SNB-19 CNS, above 100 µM with U251 CNS and 37.8 µM with UACC-62 melanoma. The TGI in the experiment on BT-549 breast, with HCT-116 colon, in the experiment with IGROV1 ovarian, in the experiment on MOLT-4 leukemia, with NCI-H522 lung and in the experiment on NCI/ADR-RES ovarian was above 100 µM each time. Also, the TGI in the experiment with SF-268 CNS, in the experiment with SNB-19 CNS, with U251 CNS and in the experiment with UACC-62 melanoma was above 100 µM each time.

Consider `O=C1c2ccc3c4c5ccc(c24)C(=O)N1CCCOCCCCOCCCNCc1ccc(cc1)CNCCCOCCCCOCCCN(C3=O)C5=O`, for which the GI50 with BT-549 breast is 1.62 µM; with HCT-116 colon it was 0.888 µM; in the experiment on IGROV1 ovarian, 0.791 µM; in the experiment on MOLT-4 leukemia, 0.981 µM; with NCI-H522 lung, 0.854 µM; in the experiment with NCI/ADR-RES ovarian, 6.12 µM. The GI50 is 0.972 µM in the experiment with SF-268 CNS, 0.991 µM in the experiment with SNB-19 CNS, 0.832 µM in the experiment on U251 CNS and 0.889 µM with UACC-62 melanoma. The TGI with BT-549 breast is 4.87 µM; in the experiment with HCT-116 colon it was 1.9 µM; in the experiment with IGROV1 ovarian it was 1.6 µM; in the experiment with MOLT-4 leukemia, 2.62 µM; in the experiment on NCI-H522 lung, 1.79 µM; in the experiment with NCI/ADR-RES ovarian, 17.5 µM. The TGI in the experiment with SF-268 CNS was 2.43 µM; in the experiment with SNB-19 CNS it was 2.27 µM; in the experiment with U251 CNS, 1.64 µM; with UACC-62 melanoma it was 1.63 µM.

Turning to `COc1ccc(C(=O)COc2cccc(/C=C3\CSc4ccccc4C3=O)c2)cc1`, the GI50 with BT-549 breast was 1.8 µM; with HCT-116 colon, 1.35 µM; in the experiment on IGROV1 ovarian, 1.49 µM; in the experiment on MOLT-4 leukemia, 0.913 µM; with NCI-H522 lung, 1.73 µM; in the experiment on NCI/ADR-RES ovarian, 3.08 µM. For the same compound, the GI50 with SF-268 CNS was 2.47 µM; in the experiment on SNB-19 CNS, 2.77 µM; in the experiment with U251 CNS, 1.57 µM; in the experiment with UACC-62 melanoma, 1.72 µM. The TGI was 3.67 µM in the experiment with BT-549 breast; 2.78 µM in the experiment with HCT-116 colon; 3.35 µM with IGROV1 ovarian; 19.3 µM in the experiment with MOLT-4 leukemia; 3.86 µM in the experiment with NCI-H522 lung; 9.64 µM in the experiment with NCI/ADR-RES ovarian. For the same compound, the TGI in the experiment on SF-268 CNS was determined as 5.77 µM; in the experiment with SNB-19 CNS it was 8.73 µM; in the experiment with U251 CNS, 2.99 µM; in the experiment with UACC-62 melanoma, 3.3 µM.

On to `Cc1ccc2c(c1C)-c1c(ccc(C)c1C)C(=O)C2=O`, for which the TGI is 1.06 µM in the experiment with BT-549 breast; 13.3 µM in the experiment on HCT-116 colon; 4.75 µM in the experiment with IGROV1 ovarian; 0.686 µM in the experiment with MOLT-4 leukemia; 0.403 µM in the experiment on NCI-H522 lung; 0.384 µM in the experiment on NCI/ADR-RES ovarian. The TGI was 5.38 µM in the experiment with SF-268 CNS, 23.8 µM in the experiment with SNB-19 CNS, 12.8 µM in the experiment on U251 CNS and 1.68 µM in the experiment on UACC-62 melanoma.

In the case of `CCN1CCN(CC(=O)Nc2nc3ccc(NCc4ccc(Cl)cc4)cc3s2)CC1`, the GI50 with BT-549 breast is 10.6 µM; in the experiment with HCT-116 colon, 3.21 µM; in the experiment on IGROV1 ovarian it was 3.37 µM; in the experiment on MOLT-4 leukemia, 2.23 µM; with NCI-H522 lung, 2.2 µM; in the experiment with NCI/ADR-RES ovarian, 2.88 µM. The GI50 in the experiment on SF-268 CNS was 2.43 µM; with SNB-19 CNS, 3.12 µM; in the experiment with U251 CNS it was 2 µM; with UACC-62 melanoma, 2.08 µM. Further, the TGI with BT-549 breast was 25 µM; with HCT-116 colon, 11.7 µM; in the experiment with IGROV1 ovarian, 14.9 µM; in the experiment on MOLT-4 leukemia it was 5.78 µM; in the experiment with NCI-H522 lung it was 5.19 µM; in the experiment on NCI/ADR-RES ovarian it was above 100 µM. The TGI in the experiment with SF-268 CNS was 6.29 µM; in the experiment on SNB-19 CNS it was 10.7 µM; with U251 CNS, 4.03 µM; in the experiment with UACC-62 melanoma, 4.03 µM.

Regarding `C=C1CC2(C[C@@H](c3ccccc3)O[C@@H](c3ccccc3)C2)OC1=O` (stereo not given in full), the TGI in the experiment with BT-549 breast was 4.24 µM; in the experiment with HCT-116 colon it was 3.71 µM; with IGROV1 ovarian, 8.26 µM; in the experiment with MOLT-4 leukemia, 5.61 µM; with NCI-H522 lung it was 3.02 µM; in the experiment on NCI/ADR-RES ovarian, 15.4 µM. Further, the concentration for total growth inhibition (TGI) in the experiment on SF-268 CNS was 23.6 µM; with SNB-19 CNS, 29.7 µM; with U251 CNS it was 28.9 µM; in the experiment on UACC-62 melanoma, 7.7 µM.

On to `C=C(C)[C@@H]1CC[C@]2(C(=O)NCCNCCNCCN)CC[C@]3(C)[C@H](CC[C@@H]4[C@@]5(C)CC[C@H](O)C(C)(C)[C@@H]5CC[C@]43C)[C@@H]12`, for which the GI50 was 15 µM in the experiment on BT-549 breast; 4.4 µM with HCT-116 colon; 16.1 µM in the experiment on IGROV1 ovarian; 11.5 µM in the experiment on MOLT-4 leukemia; 10.3 µM in the experiment with NCI-H522 lung; 18.9 µM in the experiment on NCI/ADR-RES ovarian. Further, the GI50 in the experiment on SF-268 CNS is 13.5 µM; in the experiment with SNB-19 CNS, 12.9 µM; in the experiment with U251 CNS, 12.7 µM; in the experiment with UACC-62 melanoma it was 9.29 µM. The TGI in the experiment with BT-549 breast was 57.5 µM; in the experiment with HCT-116 colon, 18.7 µM; in the experiment with IGROV1 ovarian, 32.5 µM; in the experiment on MOLT-4 leukemia, above 100 µM; in the experiment with NCI-H522 lung, 25.4 µM; in the experiment with NCI/ADR-RES ovarian, 59 µM. In addition, the TGI was 32.3 µM with SF-268 CNS, 28.2 µM in the experiment on SNB-19 CNS, 27.1 µM in the experiment on U251 CNS and 23 µM in the experiment with UACC-62 melanoma.

For `CN(c1ccc(NC(=O)Nc2ccc(OC(F)(F)F)cc2)cc1)c1ccnc(Nc2cccc(S(N)(=O)=O)c2)n1`, the GI50 with BT-549 breast is 4.31 µM; in the experiment on HCT-116 colon, 1.73 µM; with IGROV1 ovarian it was 1.73 µM; in the experiment on MOLT-4 leukemia it was 1.11 µM; in the experiment with NCI-H522 lung, 3.41 µM; in the experiment on NCI/ADR-RES ovarian, 12.6 µM. Also, the GI50 with SF-268 CNS was 2.34 µM; in the experiment with SNB-19 CNS it was 5.49 µM; in the experiment with U251 CNS it was 3.07 µM; with UACC-62 melanoma, 3.02 µM. The TGI with BT-549 breast came to 8.3 µM; with HCT-116 colon, 5.7 µM; in the experiment with IGROV1 ovarian, 7.45 µM; in the experiment with MOLT-4 leukemia, 4.16 µM; with NCI-H522 lung, 7.36 µM; in the experiment with NCI/ADR-RES ovarian it was 25 µM. Moreover, the concentration for total growth inhibition (TGI) in the experiment with SF-268 CNS was 6.74 µM; with SNB-19 CNS, 14.3 µM; with U251 CNS, 6.64 µM; with UACC-62 melanoma, 7.13 µM.

Source of the values: PubChem BioAssay (NCI).
